test system: Neuro-2A cells; assay type: cell-based, mouse; conditions: not given

Row | Molecule | BoNT/A SNAP25197-cleavage product (uptake of BoNT/A) after differentiation reagent treatment
1 | CC1=C(/C=C/C(C)=C/C=C/C(C)=C/C(=O)O)C(C)(C)CCC1 [all trans retinoic acid, All Trans-Retinoic acid] | increase

target: BoNT/A (Clostridium botulinum, UniProt P0DPI0); conditions: cited from earlier work
Sequence (P0DPI0 whole entry, looked up): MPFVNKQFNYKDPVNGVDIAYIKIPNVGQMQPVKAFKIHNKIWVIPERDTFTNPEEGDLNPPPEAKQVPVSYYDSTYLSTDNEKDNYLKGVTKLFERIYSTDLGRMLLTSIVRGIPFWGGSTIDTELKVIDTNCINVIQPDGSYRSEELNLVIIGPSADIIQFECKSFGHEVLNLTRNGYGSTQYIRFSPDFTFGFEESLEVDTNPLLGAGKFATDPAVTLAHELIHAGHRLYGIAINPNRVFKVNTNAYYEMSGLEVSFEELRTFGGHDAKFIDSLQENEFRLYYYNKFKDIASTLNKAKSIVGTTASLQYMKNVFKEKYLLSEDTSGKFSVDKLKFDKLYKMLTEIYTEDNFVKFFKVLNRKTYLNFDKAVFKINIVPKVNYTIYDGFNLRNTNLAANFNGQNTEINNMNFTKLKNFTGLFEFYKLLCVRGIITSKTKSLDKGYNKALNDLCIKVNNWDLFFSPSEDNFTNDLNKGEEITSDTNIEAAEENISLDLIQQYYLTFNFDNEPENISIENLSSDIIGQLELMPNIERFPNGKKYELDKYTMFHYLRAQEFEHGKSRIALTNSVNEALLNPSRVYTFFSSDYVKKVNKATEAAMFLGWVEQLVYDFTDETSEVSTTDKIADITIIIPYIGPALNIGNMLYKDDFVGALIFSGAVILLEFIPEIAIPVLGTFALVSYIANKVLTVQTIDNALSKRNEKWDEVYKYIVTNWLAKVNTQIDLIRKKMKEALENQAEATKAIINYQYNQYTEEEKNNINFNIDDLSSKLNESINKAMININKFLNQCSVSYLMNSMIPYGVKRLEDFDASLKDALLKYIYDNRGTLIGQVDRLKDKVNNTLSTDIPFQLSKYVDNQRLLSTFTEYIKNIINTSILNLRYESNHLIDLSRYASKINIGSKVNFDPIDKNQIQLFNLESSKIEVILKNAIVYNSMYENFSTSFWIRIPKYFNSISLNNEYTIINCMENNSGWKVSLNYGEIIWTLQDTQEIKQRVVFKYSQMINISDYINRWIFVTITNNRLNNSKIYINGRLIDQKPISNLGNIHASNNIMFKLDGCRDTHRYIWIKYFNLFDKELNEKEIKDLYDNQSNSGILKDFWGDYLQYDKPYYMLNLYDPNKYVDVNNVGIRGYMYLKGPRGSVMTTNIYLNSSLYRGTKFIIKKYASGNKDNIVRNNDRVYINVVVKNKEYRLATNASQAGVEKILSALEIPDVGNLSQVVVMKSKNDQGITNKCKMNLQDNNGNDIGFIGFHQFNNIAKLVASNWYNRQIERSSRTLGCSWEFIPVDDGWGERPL

Row | Molecule | Relative Rate
2 | SNKTRIDEANBRATKML [Peptide Q11B] | 0.25
3 | SNKTRIDEANQRABKML [Peptide T14B] | 1.20
4 | SNKTRIDEANQRATKML [[1-17]] | 1.00
5 | SNKTRIDEANQRATKXL [Peptide M16X] | 1.20
6 | SNKTRIDEANQRBTKML [Peptide A13B] | 0.79
7 | SNKTRIDEBNQRATKML [Peptide A9B] | 0.38
